# Columns and labels:
# [1] = molecular target: T1, human DGAT1 (Homo sapiens, UniProt O75907); assay: DGAT1 FlashPlate assay: inhibition of DGAT1 activity in membrane preparations; type: biochemical; conditions: human DGAT1 membranes from SF9 cells, [3H]-oleoylCoA, 120 min at 37° C.; for IC50: read-out: pIC50 (-logIC50, 50% inhibition of DGAT1 activity) (converted)
# T1 construct: FLAG (N); made in house; host or cells: SF9 insect cells (pFastBac / baculovirus); total cell membranes
# T1 sequence (O75907 1-488): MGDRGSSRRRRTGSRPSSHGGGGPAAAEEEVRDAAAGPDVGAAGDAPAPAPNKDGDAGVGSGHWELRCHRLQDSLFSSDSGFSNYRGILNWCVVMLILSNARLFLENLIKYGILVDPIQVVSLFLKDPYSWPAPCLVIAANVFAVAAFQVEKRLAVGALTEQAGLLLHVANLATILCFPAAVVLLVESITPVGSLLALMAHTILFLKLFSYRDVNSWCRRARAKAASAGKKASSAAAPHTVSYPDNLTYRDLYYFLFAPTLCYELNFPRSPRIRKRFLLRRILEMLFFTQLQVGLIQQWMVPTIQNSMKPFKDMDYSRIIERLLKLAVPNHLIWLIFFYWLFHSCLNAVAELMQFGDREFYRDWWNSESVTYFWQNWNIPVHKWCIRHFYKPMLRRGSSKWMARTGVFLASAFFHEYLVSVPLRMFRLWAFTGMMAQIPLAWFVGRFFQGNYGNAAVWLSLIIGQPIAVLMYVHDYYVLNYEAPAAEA
# Description: The inhibiting activity of compounds of Class A, Class B, Class C and Class D on DGAT1 activity was screened in a single well procedure assay using DGAT1 comprising membrane preparations and DGAT1 substrate comprising micelles and determining formed radio-active triacylglycerol coming in close proximity of a flashplate surface by radioluminescence.
# Said assay is described in full detail in WO2006/067071, the content of which is incorporated herein by reference.
# By DGAT1 activity is meant the transfer of coenzyme A activated fatty acids to the 3-position of 1,2-diacylglycerols, thus forming a triglyceride molecule, by enzyme DGAT1.
# human DGAT1 (NM012079.2) was cloned into the pFastBac vector, containing translation start, a FLAG-tag at the N-terminus as described in literature and a viral Kozak sequence (AAX) preceding the ATG to improve expression in insect cells. Expression was done as described in literature (Cases, S., Smith, S. J., Zheng, Y., Myers H. M., Lear, S. R., Sande, E., Novak, S., Collins, C., Welch, C. B., Lusis, A. J., Erickson, S. K. and Farese, R. V. (1998) Proc. Natl. Acad. Sci. USA 95, 13018-13023.) using SF9 cells.
# 72h transfected SF9 cells were collected by centrifugation (13000 rpm-15 min-4° C.) and lysed in 2×500 ml lysisbuffer (0.1M Sucrose, 50 mM KCl, 40 mM KH2PO4, 30 mM EDTA pH 7.2. Cells were homogenized by cell disruptor. After centrifugation 1380 rpm-15 min-4° C. (SN discarded), pellet was resuspended in 500 ml lysisbuffer and total cell membranes collected by ultracentrifugation at 34000 rpm(100 000 g) for 60 min (4° C.). The collected membranes were resuspended in lysis buffer, divided in aliquots and stored with 10% glycerol at −80° C. until use.
# • a) 1,2-dioleoyl-sn-glycerol, 10 mg/ml (1,2-diacylglycerol (DAG)) Dissolve in acetonitrile; evaporate the acetonitrile solution under nitrogen and reconstitute in chloroform at a final concentration of 10 mg/ml. • b) L-α-phosphatidylcholine, 1 mg/ml (phosphatidylcholine (PC)) • Dissolve in chloroform at a final concentration of 1 mg/ml and store at 4° C. • c) L-α-phosphatidyl-L-serine, 1 mg/ml (phophatidylserine (PS)) • Dissolve in chloroform at a final concentration of 1 mg/ml and store at 4° C. Method
# Add 1 ml dioleoyl-sn-glycerol (10 mg/ml) to 10 ml of L-α-phosphatidylcholine (1 mg/ml) and 10 ml of L-α-phosphatidyl-L-serine (1 mg/ml) in a thick glass recipient. Evaporate under nitrogen and put on ice for 15 min Reconstitute in 10 ml Tris/HCl (10 mM, pH 7.4) by sonication on ice. The sonification process includes sonification cycles of 10 seconds in the sonification bath followed by 10 seconds cool down on ice and repeating this sonification cycle till a homogeneous solution is obtained (takes about 15 min). The thus obtained micelles are stored at −20° C. till later use and contain DAG at a final concentration of 1.61 mM.
# • a) Assaybuffer • 50 mM Tris-HCl (pH 7.4), 150 mM MgCl2, 1 mM EDTA, 0.2% BSA. • b) N-ethylmaleimide, 5M • Dissolve 5 g into a final volume of 8 ml DMSO 100% and store at −20° C. in aliquots till later use. • c) Substrate mix (for 1 384 well plate=3840 μl) • 612 μl micelles stock (51 μM final) • 16.6 μl oleoylCoA 9.7 mM • 23 μl [^3H]-oleoylCoA (49 Ci/mmol, 500 μCi/ml) • 3188.4 μl Tris pH 7.4, 10 mM • d) Enzyme mix (for 1 384 well plate=3520 μl) (5 μg/ml) • Add 11.73 μl of DGAT membrane stock (1500 μg/ml stock) to 3508 μl assay buffer. • e) Stop mix (for 1 384 well plate=7.68 ml) (250 mM) • Add 384 μl of N-ethylmaleimide (5M) to 3.456 ml DMSO 100%, and further dilute 3.84 ml of said solution with 3.84 ml DMSO 10%. Method
# DGAT activity in membrane preparations was assayed in 50 mM Tris-HCl (pH 7.4), 150 mM MgCl2, 1 mM EDTA and 0.2% BSA, containing 50 μM DAG, 32 μg/ml PC/PS and 8.4 μM [^3H]-oleoylCoA (at a specific activity of 30 nCi/well) in a final volume of 50 μl in 384-well format using the red shifted Basic Image FlashPlate™ (Perkin Elmer Cat.No. SMP400). […]
Structure (SMILES),IC50 [1] [µM],melting point [°C],"pIC50 (-logIC50, 50% inhibition of DGAT1 activity) [1]"
"O=C(Nc1cccc(N2CCCC2)c1)c1ccc(N2CCN(C(=O)Cc3c(Cl)cc(CN4CCCC4)cc3Cl)CC2)cc1 [147-Class C, 4-[4-[[2,6-dichloro-4-(1-pyrrolidinylmethyl)phenyl]acetyl]-1-piperazinyl]-N-[3-(1-pyrrolidinyl)phenyl]-benzamide]",0.0389,262 to 263,
"CCN1CCN(Cc2cc(Cl)c(CC(=O)N3CCN(c4ccc(C(=O)Nc5cccc(N6CCCC6)c5)cc4)CC3)c(Cl)c2)CC1 [148-Class C, 4-[4-[[2,6-dichloro-4-[(4-ethyl-1-piperazinyl)methyl]phenyl]acetyl]-1-piperazinyl]-N-[3-(1-pyrrolidinyl)phenyl]-benzamide]",0.00912,180 to 182,
"CC(=O)N1CCN(Cc2cc(Cl)c(CC(=O)N3CCN(c4ccc(C(=O)Nc5cccc(N6CCCC6)c5)cc4)CC3)c(Cl)c2)CC1 [149-Class C, 4-[4-[[4-[(4-acetyl-1-piperazinyl)methyl]-2,6-dichlorophenyl]acetyl]-1-piperazinyl]-N-[3-(1-pyrrolidinyl)phenyl]-benzamide]",0.00617,250 to 252,
"CS(=O)(=O)N1CCN(Cc2cc(Cl)c(CC(=O)N3CCN(c4ccc(C(=O)Nc5cccc(N6CCCC6)c5)cc4)CC3)c(Cl)c2)CC1 [150-Class C, 4-[4-[[2,6-dichloro-4-[[4-(methylsulfonyl)-1-piperazinyl]methyl]phenyl]acetyl]-1-piperazinyl]-N-[3-(1-pyrrolidinyl)phenyl]-benzamide]",0.00603,240 to 242,
"O=C(Nc1cccc(N2CCCC2)c1)c1ccc(N2CCN(C(=O)Cc3ccc(CN4CCCC4)cc3Cl)CC2)cc1 [151-Class C, 4-[4-[[2-chloro-4-(1-pyrrolidinylmethyl)phenyl]acetyl]-1-piperazinyl]-N-[3-(1-pyrrolidinyl)phenyl]-benzamide]",0.316,224.1 to 225.4,
"O=C(Nc1cccc(N2CCCC2)c1)c1ccc(N2CCN(C(=O)C(O)c3ccc(CN4CCCC4)cc3Cl)CC2)cc1 (stereo not shown) [152-Class C, 4-[4-[[2-chloro-4-(1-pyrrolidinylmethyl)phenyl]hydroxyacetyl]-1-piperazinyl]-N-[3-(1-pyrrolidinyl)phenyl]-benzamide]",0.0355,138.7 to 140.9,
"O=C(NCc1cccc(N2CCCC2)c1)c1ccc(N2CCN(C(=O)Cc3c(Cl)cc(CN4CCCC4)cc3Cl)CC2)cc1 [267-Class D, 4-[4-[[2,6-dichloro-4-(1-pyrrolidinylmethyl)phenyl]acetyl]-1-piperazinyl]-N-[[3-(1-pyrrolidinyl)phenyl]methyl]-benzamide]",,,6.97
"COc1ccc(CC(=O)Nc2ccc(N3CCN(C(=O)Cc4c(Cl)cc(CN5CCCC5)cc4Cl)CC3)cc2)cc1 [351-Class D, N-[4-[4-[[2,6-dichloro-4-(1-pyrrolidinylmethyl)phenyl]acetyl]-1-piperazinyl]phenyl]-4-methoxy-benzeneacetamide]",,,6.62
"COc1ccc(CC(=O)Nc2ccc(N3CCN(C(=O)C(O)c4ccc(CN5CCCC5)cc4Cl)CC3)cc2)cc1 (stereo not shown) [352-Class D, N-[4-[4-[[2-chloro-4-(1-pyrrolidinylmethyl)phenyl]hydroxyacetyl]-1-piperazinyl]phenyl]-4-methoxy-benzeneacetamide]",,,6.45

# Next, values leading:
IC50 [1] [µM],melting point [°C],"pIC50 (-logIC50, 50% inhibition of DGAT1 activity) [1]",Structure (SMILES)
0.257,126.6 to 128.1,,"COc1cc(CNC(=O)c2ccc(N3CCN(C(=O)Cc4ccc(CN5CCCC5)cc4Cl)CC3)cc2)cc(OC)c1 [353-Class D, 4-[4-[[2-chloro-4-(1-pyrrolidinylmethyl)phenyl]acetyl]-1-piperazinyl]-N-[(3,5-dimethoxyphenyl)methyl]-benzamide]"
0.646,206.3 to 209.4,,"O=C(NCc1cccc(N2CCCC2)c1)c1ccc(N2CCN(C(=O)Cc3ccc(CN4CCCC4)cc3Cl)CC2)cc1 [354-Class D, 4-[4-[[2-chloro-4-(1-pyrrolidinylmethyl)phenyl]acetyl]-1-piperazinyl]-N-[[3-(1-pyrrolidinyl)phenyl]methyl]-benzamide]"
0.912,153.3 to 155.2,,"COc1ccc(CC(=O)Nc2ccc(N3CCN(C(=O)Cc4ccc(CN5CCCC5)cc4Cl)CC3)cc2)cc1 [355-Class D, N-[4-[4-[[2-chloro-4-(1-pyrrolidinylmethyl)phenyl]acetyl]-1-piperazinyl]phenyl]-4-methoxy-benzeneacetamide]"
0.0741,134.4 to 137,,"O=C(NCc1cccc(N2CCCC2)c1)c1ccc(N2CCN(C(=O)C(O)c3ccc(CN4CCCC4)cc3Cl)CC2)cc1 (stereo not shown) [356-Class D, 4-[4-[[2-chloro-4-(1-pyrrolidinylmethyl)phenyl]hydroxyacetyl]-1-piperazinyl]-N-[[3-(1-pyrrolidinyl)phenyl]methyl]-benzamide]"
0.055,,,"COc1cc(CNC(=O)c2ccc(N3CCN(C(=O)C(O)c4ccc(CN5CCCC5)cc4Cl)CC3)cc2)cc(OC)c1 (stereo not shown) [357-Class D, 4-[4-[[2-chloro-4-(1-pyrrolidinylmethyl)phenyl]hydroxyacetyl]-1-piperazinyl]-N-[(3,5-dimethoxyphenyl)methyl]-benzamide]"
0.0282,240 to 241,,"CCN1CCN(Cc2cc(Cl)c(CC(=O)N3CCN(c4ccc(C(=O)NCc5cccc(N6CCCC6)c5)cc4)CC3)c(Cl)c2)CC1 [359-Class D, 4-[4-[[2,6-dichloro-4-[(4-ethyl-1-piperazinyl)methyl]phenyl]acetyl]-1-piperazinyl]-N-[[3-(1-pyrrolidinyl)phenyl]methyl]-benzamide]"
0.00759,159 to 160,,"CCN1CCN(Cc2cc(Cl)c(CC(=O)N3CCN(c4ccc(C(=O)NCc5cc(OC)cc(OC)c5)cc4)CC3)c(Cl)c2)CC1 [360-Class D, 4-[4-[[2,6-dichloro-4-[(4-ethyl-1-piperazinyl)methyl]phenyl]acetyl]-1-piperazinyl]-N-[(3,5-dimethoxyphenyl)methyl]-benzamide]"

# Reference: patent US9107946B2, “Drug combinations comprising a DGAT inhibitor and a PPAR-agonist” (Janssen Pharmaceutica NV, priority 2008, dated 2015)
